In brackets after ≈: the same amount, converted by molar mass.
Key:
Mycobacterium kansasii = experiment: Antimycobacterial activity against Mycobacterium kansasii (ATCC12478); type: functional
[1] = system: Mycobacterium intracellulare; experiment: Antimycobacterial activity against Mycobacterium intracellular (ATCC 1954 E-3); type: functional
[2] = system: Mycolicibacterium smegmatis; experiment: Antimycobacterial activity against Mycobacterium smegmatis (SANK 75075); type: functional
Mycobacterium avium = experiment: Antimycobacterial activity against Mycobacterium avium (NIHJ1605); type: functional
[3] = target: T1, Phospho-N-acetylmuramoyl-pentapeptide-transferase (Escherichia coli K-12, UniProt P0A6W3); experiment: Inhibitory activity against translocase I
T1 sequence (P0A6W3 whole entry): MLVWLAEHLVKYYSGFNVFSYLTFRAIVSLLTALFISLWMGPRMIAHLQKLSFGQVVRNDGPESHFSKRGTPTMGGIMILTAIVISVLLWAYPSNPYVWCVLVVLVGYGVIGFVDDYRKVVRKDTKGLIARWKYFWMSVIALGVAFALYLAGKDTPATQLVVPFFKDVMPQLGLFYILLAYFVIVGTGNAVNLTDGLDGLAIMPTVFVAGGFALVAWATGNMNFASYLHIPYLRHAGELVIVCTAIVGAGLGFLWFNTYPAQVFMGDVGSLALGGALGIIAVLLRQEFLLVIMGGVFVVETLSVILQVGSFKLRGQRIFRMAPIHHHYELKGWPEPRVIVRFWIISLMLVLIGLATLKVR

| Compound | MIC [2] [µg/mL] | IC50 [3] [nM] | MIC (Mycobacterium kansasii) [µg/mL] | MIC [1] [µg/mL] | MIC (Mycobacterium avium) [µg/mL] |
| --- | --- | --- | --- | --- | --- |
| CO[C@H]1[C@@H](O)[C@H](n2ccc(=O)[nH]c2=O)O[C@@H]1[C@@H](O[C@H]1OC(C(=O)Nc2ccc(F)c(F)c2)=C[C@H](O)[C@@H]1O)C(N)=O | 6.25 (≈ 11 µM) |  | 8 (≈ 14 µM) | 0.5 (≈ 0.876 µM) | 2 (≈ 3.51 µM) |
| CO[C@H]1[C@@H](O)[C@H](n2ccc(=O)[nH]c2=O)O[C@@H]1[C@@H](O[C@H]1OC(C(=O)Nc2cccc(C)c2)=C[C@H](O)[C@@H]1O)C(N)=O | 12.5 (≈ 22.8 µM) | 13.9 | 8 (≈ 14.6 µM) | 1 (≈ 1.82 µM) | 4 (≈ 7.29 µM) |
| CO[C@H]1[C@@H](O)[C@H](n2ccc(=O)[nH]c2=O)O[C@@H]1[C@@H](O[C@H]1OC(C(=O)Nc2ccc(Br)cc2)=C[C@H](O)[C@@H]1O)C(N)=O | 6.25 (≈ 10.2 µM) | 32.6 | 8 (≈ 13 µM) | 0.5 (≈ 0.815 µM) | 8 (≈ 13 µM) |
| CO[C@H]1[C@@H](O)[C@H](n2ccc(=O)[nH]c2=O)O[C@@H]1[C@@H](O[C@H]1OC(C(=O)N[C@H]2CCCCNC2=O)=C[C@H](O)[C@@H]1O)C(N)=O [CAPURAMYCIN] | 12.5 (≈ 21.9 µM) | 18 | 8 (≈ 14 µM) | 8 (≈ 14 µM) | 8 (≈ 14 µM) |
| CO[C@H]1[C@@H](O)[C@H](n2ccc(=O)[nH]c2=O)O[C@@H]1[C@@H](O[C@H]1OC(C(=O)Nc2ccccc2)=C[C@H](O)[C@@H]1O)C(N)=O | 6.25 (≈ 11.7 µM) |  | 8 (≈ 15 µM) | 4 (≈ 7.48 µM) | 16 (≈ 29.9 µM) |
| CO[C@H]1[C@@H](O)[C@H](n2ccc(=O)[nH]c2=O)O[C@@H]1[C@@H](O[C@H]1OC(C(=O)Nc2cccc(F)c2)=C[C@H](O)[C@@H]1O)C(N)=O | 6.25 (≈ 11.3 µM) |  | 8 (≈ 14.5 µM) | 2 (≈ 3.62 µM) | 2 (≈ 3.62 µM) |
| NNC(=O)c1ccncc1 [ISONIAZID] |  |  | 2 (≈ 14.6 µM) | 8 (≈ 58.3 µM) | 1 (≈ 7.29 µM) |
| CO[C@H]1/C=C/O[C@@]2(C)Oc3c(C)c(O)c4c(O)c(c(/C=N/N5CCN(C)CC5)c(O)c4c3C2=O)NC(=O)/C(C)=C\C=C\[C@H](C)[C@H](O)[C@@H](C)[C@@H](O)[C@@H](C)[C@H](OC(C)=O)[C@@H]1C [RIFAMPIN] |  |  | 0.25 (≈ 0.304 µM) | 0.125 (≈ 0.152 µM) | 0.125 (≈ 0.152 µM) |
| CO[C@H]1[C@@H](O)[C@H](n2ccc(=O)[nH]c2=O)O[C@@H]1[C@@H](O[C@H]1OC(C(=O)Nc2ccc(F)cc2)=C[C@H](O)[C@@H]1O)C(N)=O | 6.25 (≈ 11.3 µM) | 67 | 2 (≈ 3.62 µM) | 2 (≈ 3.62 µM) | 4 (≈ 7.24 µM) |
| CO[C@H]1[C@@H](O)[C@H](n2ccc(=O)[nH]c2=O)O[C@@H]1[C@@H](O[C@H]1OC(C(=O)N[C@H]2CCC[C@@H](C)NC2=O)=C[C@H](O)[C@@H]1O)C(N)=O | 6.25 (≈ 10.7 µM) |  | 16 (≈ 27.4 µM) | 4 (≈ 6.85 µM) | 8 (≈ 13.7 µM) |
| COc1cc(CNC(=O)C2=C[C@H](O)[C@H](O)[C@@H](O[C@@H](C(N)=O)[C@H]3O[C@@H](n4ccc(=O)[nH]c4=O)[C@H](O)[C@@H]3OC)O2)cc(OC)c1OC | > 100 | 658 |  |  |  |
| CO[C@H]1[C@@H](O)[C@H](n2ccc(=O)[nH]c2=O)O[C@@H]1[C@@H](O[C@H]1OC(C(=O)Nc2ccc(C(C)C)cc2)=C[C@H](O)[C@@H]1O)C(N)=O | 25 (≈ 43.4 µM) | 208 |  |  |  |
| CCCc1ccc(NC(=O)C2=C[C@H](O)[C@H](O)[C@@H](O[C@@H](C(N)=O)[C@H]3O[C@@H](n4ccc(=O)[nH]c4=O)[C@H](O)[C@@H]3OC)O2)cc1 | 12.5 (≈ 21.7 µM) | 53.8 |  |  |  |
| CO[C@H]1[C@@H](O)[C@H](n2ccc(=O)[nH]c2=O)O[C@@H]1[C@@H](O[C@H]1OC(C(=O)Nc2ccccc2OCc2ccccc2)=C[C@H](O)[C@@H]1O)C(N)=O | 25 (≈ 39 µM) | 35.9 |  |  |  |
| CO[C@H]1[C@@H](O)[C@H](n2ccc(=O)[nH]c2=O)O[C@@H]1[C@@H](O[C@H]1OC(C(=O)Nc2ccc(Cl)cc2)=C[C@H](O)[C@@H]1O)C(N)=O | 6.25 (≈ 11 µM) | 31.6 | 16 (≈ 28.1 µM) | 2 (≈ 3.52 µM) | 4 (≈ 7.03 µM) |

Continued, in another order:

| MIC [2] [µg/mL] | IC50 [3] [nM] | Compound | MIC (Mycobacterium kansasii) [µg/mL] | MIC [1] [µg/mL] | MIC (Mycobacterium avium) [µg/mL] |
| --- | --- | --- | --- | --- | --- |
| 50 (≈ 84.4 µM) | 54 | COc1ccccc1CCNC(=O)C1=C[C@H](O)[C@H](O)[C@@H](O[C@@H](C(N)=O)[C@H]2O[C@@H](n3ccc(=O)[nH]c3=O)[C@H](O)[C@@H]2OC)O1 |  |  |  |
| 50 (≈ 79.2 µM) | 30.1 | CO[C@H]1[C@@H](O)[C@H](n2ccc(=O)[nH]c2=O)O[C@@H]1[C@@H](O[C@H]1OC(C(=O)NCCc2ccc(Cl)cc2Cl)=C[C@H](O)[C@@H]1O)C(N)=O |  |  |  |
| > 100 | 820 | CO[C@H]1[C@@H](O)[C@H](n2ccc(=O)[nH]c2=O)O[C@@H]1[C@@H](O[C@H]1OC(C(=O)N2CCCC2)=C[C@H](O)[C@@H]1O)C(N)=O |  |  |  |
| 50 (≈ 80.3 µM) | 40.2 | COc1ccc(CCNC(=O)C2=C[C@H](O)[C@H](O)[C@@H](O[C@@H](C(N)=O)[C@H]3O[C@@H](n4ccc(=O)[nH]c4=O)[C@H](O)[C@@H]3OC)O2)cc1OC |  |  |  |
| 25 (≈ 41.9 µM) | 46.9 | CO[C@H]1[C@@H](O)[C@H](n2ccc(=O)[nH]c2=O)O[C@@H]1[C@@H](O[C@H]1OC(C(=O)NCCc2ccccc2Cl)=C[C@H](O)[C@@H]1O)C(N)=O |  |  |  |
| > 50 | > 3820 | CCCCCCCCCCCCCCNC(=O)C1=C[C@H](O)[C@H](O)[C@@H](O[C@@H](C(N)=O)[C@H]2O[C@@H](n3ccc(=O)[nH]c3=O)[C@H](O)[C@@H]2OC)O1 |  |  |  |
| 50 (≈ 91.2 µM) | 219 | CO[C@H]1[C@@H](O)[C@H](n2ccc(=O)[nH]c2=O)O[C@@H]1[C@@H](O[C@H]1OC(C(=O)NCc2ccccc2)=C[C@H](O)[C@@H]1O)C(N)=O |  |  |  |
| > 100 | 320 | CO[C@H]1[C@@H](O)[C@H](n2ccc(=O)[nH]c2=O)O[C@@H]1[C@@H](O[C@H]1OC(C(=O)NCCCCO)=C[C@H](O)[C@@H]1O)C(N)=O |  |  |  |
| 50 (≈ 86.4 µM) | 484 | COc1ccccc1CNC(=O)C1=C[C@H](O)[C@H](O)[C@@H](O[C@@H](C(N)=O)[C@H]2O[C@@H](n3ccc(=O)[nH]c3=O)[C@H](O)[C@@H]2OC)O1 |  |  |  |
| 100 (≈ 173 µM) | 1210 | COc1ccc(CNC(=O)C2=C[C@H](O)[C@H](O)[C@@H](O[C@@H](C(N)=O)[C@H]3O[C@@H](n4ccc(=O)[nH]c4=O)[C@H](O)[C@@H]3OC)O2)cc1 |  |  |  |
| 50 (≈ 84.4 µM) | 32.1 | COc1cccc(CCNC(=O)C2=C[C@H](O)[C@H](O)[C@@H](O[C@@H](C(N)=O)[C@H]3O[C@@H](n4ccc(=O)[nH]c4=O)[C@H](O)[C@@H]3OC)O2)c1 |  |  |  |
| 12.5 (≈ 22.2 µM) | 889 | CO[C@H]1[C@@H](O)[C@H](n2ccc(=O)[nH]c2=O)O[C@@H]1[C@@H](O[C@H]1OC(C(=O)NCc2ccccc2C)=C[C@H](O)[C@@H]1O)C(N)=O |  |  |  |
| 50 (≈ 91.5 µM) | 128 | CO[C@H]1[C@@H](O)[C@H](n2ccc(=O)[nH]c2=O)O[C@@H]1[C@@H](O[C@H]1OC(C(=O)NCCCSC)=C[C@H](O)[C@@H]1O)C(N)=O |  |  |  |
| > 100 | 57 | COC(=O)C1=C[C@H](O)[C@H](O)[C@@H](O[C@@H](C(N)=O)[C@H]2O[C@@H](n3ccc(=O)[nH]c3=O)[C@H](O)[C@@H]2OC)O1 |  |  |  |

From ChEMBL document CHEMBL1136174, “Synthesis and antimycobacterial activity of capuramycin analogues. Part 1: substitution of the azepan-2-one moiety of capuramycin” (Bioorg Med Chem Lett, 2003)
